For this assay, the target named is T1, human orexin-2 receptor (OX2R) (Homo sapiens, UniProt O43614).
T1 construct: expressed in transfected cells
T1 sequence (O43614 1-444): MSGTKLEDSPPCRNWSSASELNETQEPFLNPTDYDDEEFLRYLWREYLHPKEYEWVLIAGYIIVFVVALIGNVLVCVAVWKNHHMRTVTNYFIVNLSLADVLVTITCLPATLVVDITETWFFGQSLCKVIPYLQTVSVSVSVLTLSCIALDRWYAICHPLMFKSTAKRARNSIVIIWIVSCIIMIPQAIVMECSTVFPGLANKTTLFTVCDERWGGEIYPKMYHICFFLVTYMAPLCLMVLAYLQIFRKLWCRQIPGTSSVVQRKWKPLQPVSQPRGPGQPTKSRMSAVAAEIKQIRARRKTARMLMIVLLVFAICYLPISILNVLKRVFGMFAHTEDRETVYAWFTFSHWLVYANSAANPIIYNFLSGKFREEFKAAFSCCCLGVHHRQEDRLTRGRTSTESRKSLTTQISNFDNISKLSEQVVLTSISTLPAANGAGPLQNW
The assay is described as follows: Human OX2R IP1 assay. Type of assay: cell-based. The conditions noted are these: T-Rex CHO cells stably overexpressing human OX2R; IP1 accumulation; 1 hr at 37 degrees C; mean EC50. The protocol:
T-Rex CHO cells stably overexpressing the human orexin-2 receptor (OX2R) were induced overnight with 1 μg/mL of doxycycline in a T225 flask. 24 hours post induction, cells were lifted with accutase and plated into a 384-well proxy plate at 30,000 cells/well. Cells were then treated with different test compounds in 1× stimulation buffer containing 10 mM Hepes, 1 mM CaCl2), 0.5 mM MgCl2, 4.2 mM KCl, 146 mM NaCl, 5.5 mM glucose, and 50 mM LiCl, pH 7.4, for 1 hr at 37 degrees C. Following incubation, the reaction was terminated by the addition of detection mix, which is composed of IP1-d2 and anti-IP1-cryptate diluted in lysis buffer as well as 1× stimulation buffer. The plates were allowed to incubate for 1 hour at room temperature and were then read in the EnVision® multimode plate reader, measuring inositol phosphate levels.
Cisbio IP1 is a cell-based functional assay quantifying the accumulation of inositol monophosphate (IP), a metabolite released as a result of orexin 2 receptor activation through the phospholipase C-Gq signaling pathway. This is a competitive immunoassay in which the IP1 produced by the cells upon receptor activation competes with the IP1 analog coupled to the d2 fluorophore (acceptor) for binding to an anti-IP1 monoclonal antibody labeled with Eu cryptate (donor). The measured HTRF-FRET based signal is inversely proportional to the IP1 concentration produced.
The EC50 values reported in Table 2 were obtained according to the human OX2R IP1 assay described above. Data are the mean EC50 values S.E.M. Reference Compound A is methyl (2R,3S)-3-((methylsulfonyl)amino)-2-(((cis-4-phenylcyclohexyl)oxy)methyl)-piperidine-1-carboxylate (Example 5 of PCT publication No. WO2017/135306). Reference Compound B is N-((2S,3S)-1-(2-hydroxy-2-methylpropanoyl)-2-((2,3′,5′-trifluorobiphenyl-3-yl)methyl)pyrrolidin-3-yl)methanesulfonamide (Example 483 of PCT publication No. WO2019/027058).

The record followed here is patent US12006330B2, “Substituted macrocyclic compounds and related methods of treatment” (Alkermes, Inc., priority 2020, dated 2024).

The term EC50 denotes the concentration at which the effect is half-maximal. `CC1(S(=O)(=O)N[C@H]2CCCN3CCOc4ccccc4[C@H]4CC[C@H](CC4)OC[C@@H]23)CC1` (stereo in doubt) [Compound 58]: the EC50 was 10 to 1000 nM.
Compound `O=S(=O)(CC1CC1)N[C@H]1CCCN2CCOc3ccccc3[C@H]3CC[C@H](CC3)OC[C@@H]12` (stereo in doubt) [Compound 59] displayed an EC50 of 10 to 1000 nM.
The same measure for `Cc1ccnc2c1[C@H]1CC[C@H](CC1)OC[C@H]1[C@@H](NS(=O)(=O)C3CC3)CCCN1C(=O)CO2` (stereo in doubt) [Compound 62]: less than 10 nM; for `O=S(=O)(N[C@H]1CCCN2CCOc3ncccc3[C@H]3CC[C@H](CC3)OC[C@@H]12)C1CC1` (stereo in doubt) [Compound 63]: greater than 1000 nM.
The result for `CC(C)S(=O)(=O)N[C@H]1CCCN2CCOc3ncccc3[C@H]3CC[C@H](CC3)OC[C@@H]12` (stereo in doubt) [Compound 64] reads greater than 1000 nM.
The result for `O=C1COc2nccnc2[C@H]2CC[C@H](CC2)OC[C@H]2[C@@H](NS(=O)(=O)C3CC3)CCCN12` (stereo in doubt) [Compound 65] reads less than 10 nM.
In turn, `CC(C)S(=O)(=O)N[C@H]1CCCN2C(=O)COc3nccnc3[C@H]3CC[C@H](CC3)OC[C@@H]12` (stereo in doubt) [Compound 66] displayed a half-maximal effective concentration (EC50) of less than 10 nM.
The result for `O=C1COc2nnccc2[C@H]2CC[C@H](CC2)OC[C@H]2[C@@H](NS(=O)(=O)C3CC3)CCCN12` (stereo in doubt) [Compound 67] reads 10 to 1000 nM; that for `Cc1ncnc2c1[C@H]1CC[C@H](CC1)OC[C@H]1[C@@H](NS(=O)(=O)C3CC3)CCCN1C(=O)CO2` (stereo in doubt) [Compound 68], less than 10 nM.
`Cc1ncnc2c1[C@H]1CC[C@H](CC1)OC[C@H]1[C@@H](NS(=O)(=O)C(C)C)CCCN1C(=O)CO2` (stereo in doubt) [Compound 69]: the EC50 was less than 10 nM.
The same measure for `Cc1cccc2c1[C@H]1CC[C@H](CC1)OC[C@H]1[C@@H](NS(=O)(=O)C3CC3)CCN1C(=O)CO2` (stereo in doubt) [Compound 70]: less than 10 nM.
The result for `O=C1COc2cccc(F)c2[C@H]2CC[C@H](CC2)OC[C@H]2[C@@H](NS(=O)(=O)C3CC3)CCCN12` (stereo in doubt) [Compound 74] reads less than 10 nM.
The same measure for `Cc1c(Cl)ccc2c1[C@H]1CC[C@H](CC1)OC[C@H]1[C@@H](NS(=O)(=O)C3CC3)CCCN1C(=O)CO2` (stereo in doubt) [Compound 75]: less than 10 nM; for `Cc1ccc2c(c1C)[C@H]1CC[C@H](CC1)OC[C@H]1[C@@H](NS(=O)(=O)C(C)C)CCCN1C(=O)CO2` (stereo in doubt) [Compound 76]: less than 10 nM.
As for `Cc1ccc2c(c1C)[C@H]1CC[C@H](CC1)OC[C@H]1[C@@H](NS(=O)(=O)C3CC3)CCCN1C(=O)CO2` (stereo in doubt) [Compound 77], the EC50 was less than 10 nM.
The compound `Cc1ccc2c(c1C)[C@H]1CC[C@H](CC1)OC[C@H]1[C@@H](NS(C)(=O)=O)CCCN1C(=O)CO2` (stereo in doubt) [Compound 78] displayed an EC50 of less than 10 nM.
The result for `Cc1cccc2c1[C@H]1CC[C@H](CC1)OC[C@H]1[C@@H](NS(=O)(=O)C(C)C)CCN1C(=O)CO2` (stereo in doubt) [Compound 79] reads less than 10 nM; that for `O=C1COc2ccccc2[C@H]2CC[C@H](CC2)OC[C@H]2[C@@H](NS(=O)(=O)C3COC3)CCCN12` (stereo in doubt) [Compound 80], less than 10 nM; that for `Cc1ncnc2c1[C@H]1CC[C@H](CC1)OC[C@H]1[C@@H](NS(C)(=O)=O)CCN1C(=O)CO2` (stereo in doubt) [Compound 82], 10 to 1000 nM.
`Cc1ncnc2c1[C@H]1CC[C@H](CC1)OC[C@H]1[C@@H](NS(=O)(=O)C3CC3)CCN1C(=O)CO2` (stereo in doubt) [Compound 83]: the EC50 lay within 10 to 1000 nM.
`Cc1ncnc2c1[C@H]1CC[C@H](CC1)OC[C@H]1[C@@H](NS(=O)(=O)C(C)C)CCN1C(=O)CO2` (stereo in doubt) [Compound 86] registered a half-maximal effective concentration (EC50) of 10 to 1000 nM.
In turn, `Cc1ccnc2c1[C@H]1CC[C@H](CC1)OC[C@H]1[C@@H](NS(=O)(=O)C3COC3)CCCN1C(=O)CO2` (stereo in doubt) [Compound 88] yielded an EC50 of less than 10 nM.
On to `Cc1ccnc2c1[C@H]1CC[C@H](CC1)OC[C@H]1[C@@H](NS(=O)(=O)C3CC3)CCN1C(=O)CO2` (stereo in doubt) [Compound 92], for which the EC50 is less than 10 nM.
`Cc1ccnc2c1[C@H]1CC[C@H](CC1)OC[C@H]1[C@@H](NS(=O)(=O)C(C)C)CCN1C(=O)CO2` (stereo in doubt) [Compound 93] yielded an EC50 of less than 10 nM.
With `CS(=O)(=O)N[C@H]1CCCN2C(=O)COc3ccc(O)cc3[C@H]3CC[C@H](CC3)OC[C@@H]12` (stereo in doubt) [Compound 96], the concentration giving a half-maximal response (EC50) was less than 10 nM.
The same measure for `O=C1COc2ncncc2[C@H]2CC[C@H](CC2)OC[C@H]2[C@@H](NS(=O)(=O)C3CC3)CCCN12` (stereo in doubt) [Compound 97]: 10 to 1000 nM; for `CC(C)S(=O)(=O)N[C@H]1CCN2C(=O)COc3ncccc3[C@H]3CC[C@H](CC3)OC[C@@H]12` (stereo in doubt) [Compound 101]: less than 10 nM.
Turning to `O=C1COc2ccccc2[C@H]2CC[C@H](CC2)OC[C@H]2[C@@H](NS(=O)(=O)C3CC3)CCN12` (stereo in doubt) [Compound 105], the EC50 was less than 10 nM.
`CC(C)S(=O)(=O)N[C@H]1CCN2C(=O)COc3ccccc3[C@H]3CC[C@H](CC3)OC[C@@H]12` (stereo in doubt) [Compound 106] registered a concentration for a half-maximal effect (EC50) of less than 10 nM.
The result for `O=C1COc2ncccc2[C@H]2CC[C@H](CC2)OC[C@H]2[C@@H](NS(=O)(=O)C3CC3)CCN12` (stereo in doubt) [Compound 107] reads less than 10 nM; that for `O=C1COc2ncccc2[C@H]2CC[C@H](CC2)OCC2[C@@H](NS(=O)(=O)C(F)(F)F)CCN12` (stereo in doubt) [Compound 108], less than 10 nM; that for `Cc1ccnc2c1[C@H]1CC[C@H](CC1)OC[C@H]1[C@@H](NS(=O)(=O)C3COC3)CCN1C(=O)CO2` (stereo in doubt) [Compound 109], less than 10 nM.
As for `O=C1COc2ccccc2[C@H]2CC[C@H](CC2)OC[C@H]2[C@@H](NS(=O)(=O)C3COC3)CCN12` (stereo in doubt) [Compound 110], the EC50 is less than 10 nM.
For the compound `C[C@H]1C[C@H](NS(C)(=O)=O)C2CO[C@H]3CC[C@H](CC3)c3ccccc3OCC(=O)N21` (stereo in doubt) [Compound 111], the EC50 lay in the range of 10 to 1000 nM.
